Assay [1] concerns HT29. To be noted: NCI data; cited from earlier work.
Assay [2] concerns COLO205. To be noted: NCI data; cited from earlier work.
For assay [3], the system named is HCC-2998. To be noted: NCI data; cited from earlier work.
The subject of assay [4] is HCT-116. To be noted: NCI data; cited from earlier work.
In assay [5] the test system is HCT-15. To be noted: NCI data; cited from earlier work.
The subject of assay [6] is KM12. To be noted: NCI data; cited from earlier work.
The subject of assay [7] is SW-620. To be noted: NCI data; cited from earlier work.
Assay [8] has as its system COLO205. As to the kind of experiment: NCI anticancer drug screen, proliferation (GI50). It counts as cell-based. To be noted: Homo sapiens, COLO 205. How it is done: (§1) SC-2-71 was evaluated against human cultured cell lines in the NCI Anticancer Drug Development Program. […] This includes potent inhibition of colon cancer cells from primary tumors, distal metastasis and ascites fluid.

Assay [9] has as its system HCC-2998. Description: NCI anticancer drug screen, proliferation (GI50). Format: cell-based. To be noted: Homo sapiens. How it is done:
as §1

The subject of assay [10] is HCT-116. Description: NCI anticancer drug screen, proliferation (GI50). It counts as cell-based. To be noted: Homo sapiens, grade III tumor cells (HCT116). How it is done: as §1
Assay [11] concerns HCT-15. Description: NCI anticancer drug screen, proliferation (GI50). It counts as cell-based. To be noted: Homo sapiens. Here is the method:
as §1

Assay [12] deals with HT29. As to the kind of experiment: NCI anticancer drug screen, proliferation (GI50). Format: cell-based. To be noted: Homo sapiens, HT-29. Here is the method: as §1
The subject of assay [13] is KM12. Description: NCI anticancer drug screen, proliferation (GI50). It counts as cell-based. To be noted: Homo sapiens. Here is the method: as §1
In assay [14] the test system is SW-620. As to the kind of experiment: NCI anticancer drug screen, proliferation (GI50). It counts as cell-based. To be noted: Homo sapiens. How it is done:
as §1

Assay [15] deals with MDA-MB-435 cells. Description: Anti-proliferative activity, SRB assay. Format: cell-based. To be noted: Homo sapiens. Background: The SRB assay estimates cell density from bound dye.
In assay [16] the test system is NCI/ADR cells (Pgp expressing). As to the kind of experiment: Proliferation of Pgp expressing cell line. To be noted: for IC50: Homo sapiens, NCI/ADR-RES; for Rr value: relative resistance, NCI/ADR vs MDA-MB-435. Format: cell-based. The text has this:
Relative resistance (Rr) values can be calculated by dividing the IC50 of the […] cell line.

The test system of the next assay is tubulin. Description: Microtubule disruption / tubulin depolymerization. It counts as cell-based. To be noted: for Microtubule activity (% depolymerization): at 5 μM.
The subject of assay [17] is Human Microvessel Endothelial Cells (HMEC). Description: Endothelial cell proliferation. It counts as cell-based. To be noted: triplicate, ± SEM. The text has this:
(§2) Without wishing to be bound by any particular theory, strategies and experiments are described herein pertaining to developing an anti-cancer strategy of simultaneously inhibiting endothelial and cancer cells. […] The taxanes, taxol and docetaxel, vinblastine, vincristine and 2-methoxyestradiol all have anti-angiogenic activity in vivo. […] SC-2-71's ability to inhibit angiogenesis in an in vivo model was then examined.

The subject of assay [18] is Human Umbilical Vein Endothelial Cells (HUVEC). As to the kind of experiment: Endothelial cell proliferation. It counts as cell-based. To be noted: triplicate, ± SEM.
From the text: as §2

The subject of a further assay is NCI 60 human cell lines. As to the kind of experiment: NCI 60 human cell lines (GI50). Format: cell-based. To be noted: several cell lines of the NCI 60 panel. From the text: FIG. 1 Depicts the effects of SC-2-71 against the NCI 60 human cell lines (GI50).
Several interesting findings are evident.

For assay [19], the system named is blood vessels on the chick chorioallantoic membrane. As to the kind of experiment: Chick chorioallantoic membrane (CAM) model of blood vessel growth. It counts as in vivo. To be noted: 100 μM, compared to control. How it is done:
SC-2-71 (100 μM) inhibited a translational model of blood vessel growth in vivo (CAM, FIG. 8, panel B and C) as compared to control (FIG. 8, panel A). This strongly establishes that SC-2-71 has anti-angiogenic activity. Further it raises the question as to the expression level of βIII tubulin in HMECs.

Another assay deals with A-10 cells. Description: Cell based phenotypic screen of microtubule disruption. The text has this:
FIG. 2 Depicts the microtubule depolymerizing effects of SC-2-71 in A-10 cells.
The microtubule disrupting effects of SC-2-71 were detected in a cell based phenotypic screen (FIG. 2). […] This effect is consistent with the effects observed from other microtubule depolymerizers. […] This is also a hallmark of microtubule disrupting compounds. Depolymerization of interphase microtubules is a classic response of cells to relatively high concentrations of microtubule disruptors such as the vinca alkaloids.

The next assay concerns HeLa cells. Description: Mitotic spindle formation. It counts as cell-based. To be noted: low micromolar concentrations.
For assay [20], the system named is MDA-MB-435 cells. Description: Cell cycle progression by flow cytometry. To be noted: 3 μM for 18 h, Krishan's reagent. Format: cell-based. How it is done: The effects of SC-2-71 on cell cycle progression were determined using flow cytometry techniques. MDA-MB-435 cells were treated with 3 μM SC-2-71 for 18 h, stained with Krishan's reagent and DNA content analyzed.
A general note: A flow cytometer gives signals particle by particle.

The subject of assay [21] is NCI/ADR cells (Pgp expressing). To be noted: NCI/ADR (Pgp expressing) and MDA-MB-435 (Pgp deficient); Tinley et al. 2003; cited from earlier work.

Each structure is given as a SMILES string. Entries after “also recorded” stand apart in the source; their conditions may differ. Read-outs that look alike come from different tables or passages of the source.

As a reminder, the GI50 is the concentration at which growth is held to half of that of the control. With `O=c1[nH]cc(F)c(=O)[nH]1` [Compound 5FU, 5-Fluorouracil], the GI50 with HT29 [1] is 6700 nM; with COLO205 [2], 7200 nM; in the assay with HCC-2998 [3], 1400 nM; in the assay on HCT-116 [4] it was 4000 nM; in the assay on HCT-15 [5], 5800 nM; in the assay with KM12 [6], 11100 nM. Moreover, the GI50 with SW-620 [7] is 26200 nM.

Usually IC50 stands for the concentration needed to halve the response being measured. High values mean a need for much substance, low ones inhibition by little substance. As to `O=C1NC(c2ccc(-c3ccccc3)cc2)Nc2ccccc21` (stereo not drawn) [SC-2-71], the GI50 in the assay with COLO205 [8] turned out to be 900 nM; with HCC-2998 [9] (HCC 2998, colon HCC2998, read-out: lowest GI50) it was 68 nM; in the assay on HCC-2998 [9] (HCC-2998, read-out: GI50), 68 nM; in the assay with HCT-116 [10] it was 500 nM; with HCT-15 [11], 400 nM; in the assay with HT29 [12], 1000 nM. The GI50 is 2000 nM with KM12 [13], 4000 nM in the assay with SW-620 [14] and over 100000 nM in the assay on NCI 60 human cell lines. Further, the IC50 in the assay on MDA-MB-435 cells [15] is 0.61 ± 0.1 µM; in assay [16] it was 1.8 ± 0.11 µM; in assay [17], 20000 nM; in [18] (Homo sapiens, HUVEC), 1600 nM; in assay [18], 1660 ± 500 nM. Besides, in [16] (inferred from Rr values), the “transport by Pgp” value is reported as “poor substrate for transport by Pgp”. For the same molecule, the Rr value in [16] came out at 2.95. Moreover, the “Microtubule activity (% depolymerization)” value with tubulin is given as 50%. Further, the “blood vessel growth (CAM)” value in assay [19] is recorded as “inhibited”. The micronucleation entry in the assay with A-10 cells is listed as “extensive micronucleation”. In the assay on A-10 cells (interphase microtubule network), the “effect on cellular microtubules” value is reported as “concentration dependent loss of cellular microtubules”. In addition, the “mitotic spindles and mitotic accumulation” value with HeLa cells was “formation of abnormal mitotic spindles and mitotic accumulation”. In addition, the “cell cycle progression (DNA content)” value in the assay on MDA-MB-435 cells [20] is recorded as “distinct mitotic accumulation”.

`O=C(c1ccccc1)c1ccc(C2NC(=O)c3ccccc3N2)cc1` (stereo not drawn) [SC-4-283] came in with an IC50 with MDA-MB-435 cells [15] of 0.9 ± 0.3 µM. In addition, in the assay with tubulin, the “inhibition of tubulin polymerization” value is reported as “improved inhibitory activity in relation to SC-2-71; also recorded: potent inhibitor of tubulin polymerization” and the “Microtubule activity (% depolymerization)” value came to 50% at 5 μM.

In turn, `O=C(c1ccccc1)c1ccc(C2NC(=O)c3ccccc3N2)cc1Cl` (stereo not drawn) [SC-5-87] came in with a concentration for half-maximal inhibition (IC50) in the assay with MDA-MB-435 cells [15] of 0.26 ± 0.02 µM. In assay [16], this molecule came in with an IC50 of 0.76 ± 0.01 µM and a Rr value of 2.9. In addition, the “Microtubule activity (% depolymerization)” value with tubulin turned out to be 90% at 5 μM.

The molecule `Cc1ccccc1-c1ccc(C2NC(=O)c3ccccc3N2)cc1` (stereo not drawn) [SC-5-121] gave an IC50 with MDA-MB-435 cells [15] of 0.6 ± 0.1 µM. In assay [16], this molecule displayed an IC50 of 0.88 ± 0.03 µM and a Rr value of 1.2. Further, the “Microtubule activity (% depolymerization)” value with tubulin stood at 90% at 5 μM.

As to `CC[C@]1(O)C[C@H]2CN(CCc3c([nH]c4ccccc34)[C@@](C(=O)OC)(c3cc4c(cc3OC)N(C=O)[C@H]3[C@@](O)(C(=O)OC)[C@H](OC(C)=O)[C@]5(CC)C=CCN6CC[C@]43[C@@H]65)C2)C1` [Vincristine], the GI50 in the assay on HT29 [1] is 110 nM; in the assay on COLO205 [2], 120 nM; in the assay on HCC-2998 [3] it was 110 nM; in the assay with HCT-116 [4], 120 nM; in the assay with HCT-15 [5] it was 140 nM; in the assay with KM12 [6], 120 nM. In addition, the GI50 with SW-620 [7] was 110 nM.

As for `CC(=O)O[C@H]1C(=O)[C@@]2(C)[C@H]([C@H](OC(=O)c3ccccc3)[C@]3(O)C[C@H](OC(=O)[C@H](O)[C@@H](NC(=O)c4ccccc4)c4ccccc4)C(C)=C1C3(C)C)[C@]1(OC(C)=O)CO[C@@H]1C[C@@H]2O` [taxol], the Rr value in assay [21] is reported as 827.
